{"source": "patent US20050112123A1", "about": "“Methods of treating proteinuria” (priority 2003, published 2005)", "key": {"[1]": {"tested_on": "heat sensitive mouse podocytes", "assay": "MTT cell proliferation assay, heat sensitive mouse podocytes (HSMP), growth permissive", "format": "cell-based", "settings": "heat sensitive mouse podocytes under growth permissive conditions; at higher concentrations than rat podocytes", "description": "(§1) Exposure ofpodocvtes to ATRA. Rat podocytes, mouse podocytes, and growth permissive HSMP were plated at a concentration of 15,000 cell/cm^2 in standard media and allowed to adhere overnight."}, "cultured rat podocytes": {"tested_on": "cultured rat podocytes", "assay": "Cell morphology by scanning electron microscopy, cultured rat podocytes", "format": "cell-based", "description": "as §1\nCell morphology was carefully examined under light microscopy on an inverted scope. Cellular morphology was also examined by scanning electron microscopy on adherent cells fixed in half-strength Karnovsky's solution."}, "[2]": {"tested_on": "C57BL6 mice with anti-glomerular antibody-mediated podocyte injury", "assay": "Anti-glomerular antibody model of podocyte injury: immunostaining of kidney tissue", "format": "in vivo, mouse", "settings": "for PCNA staining (podocyte proliferation) vs control: FIG. 4; for WT-1 staining (podocyte number) vs control: P<0.001, FIG. 5", "description": "Immunofluorescent staining of kidney tissue. Mouse kidney biopsies were fixed in methyl Carnoy's (MC) solution or snap frozen in liquid nitrogen for analysis of proliferating cell nuclear antigen (PCNA), WT-1, podocin, synaptopodin, podocalyxin, and nephrin in vivo following ATRA treatment in anti-glomerular disease. Sections (4 μm) were cut from paraffin embedded MC fixed tissue or from OCT embedded frozen tissue. Frozen sections were then fixed in 100% methanol at −20° C. Mouse monoclonal antibody to PCNA (Beckman Coulter Miami, Fla., USA) or rabbit polyclonal antibody to WT-1 were incubated on MC-fixed tissue, and rabbit polyclonal antibodies to podocin, nephrin, podocalyxin, and synaptopodin were incubated on frozen sections. Primary mouse antibody to PCNA was incubated with a peroxidase conjugated rat anti-mouse IgM antibody (Zymed Laboratories, Inc. So. San Francisco, Calif., USA); all other primary antibodies were incubated with biotinylayted goat anti-rabbit antibody followed by either avidin D conjugated horseradish peroxidase (WT-1) or avidin conjugated AlexaFluor. PCNA and WT-1 stains were visualized with diaminobenzidine (Sigma Chemicals, St. Louis, Mo., USA).\nAn antibody-mediated model of podocyte injury was induced in C57BL6 mice with a sheep anti-glomerular antibody (two doses of 0.3 ml/20 gm body weight) over two consecutive days. Kim et al. (1999) Kidney Int 55:2349-2361; and Ophascharoensuk et al. (1998) Kidney Int 54:416-425. After the induction of the anti-glomerular model, but before the development of proteinuria, mice were then divided into an experimental group that received daily injections of ATRA 16.6 mg/kg (IP), and a control group that received vehicle (corn oil). […] The podocyte specific proteins WT-1, nephrin, podocin, synaptopodin, were measured by immunostaining at each time point, as was the proliferation marker, PCNA (see above). Using proliferating cell nuclear antigen (PCNA) as a marker of proliferation and WT-1 as a marker for podocytes, the level of podocyte proliferation was determined."}, "[3]": {"tested_on": "conditionally immortalized podocytes from transgenic HIV Tg-26", "assay": "MTT proliferation assay, HIV transgenic (Tg) podocytes under growth restriction", "format": "cell-based, mouse", "settings": "25 ATRA, FIG. 6", "description": "(§2) To test the hypothesis that ATRA altered the proliferative capacity of podocytes in HIV transgenic mice, conditionally immortalized podocytes harvested from transgenic HIV Tg-26 (Tg) and conditionally immortalized podocytes from transgene free or wild-type podocytes (controls) were compared in a series of studies. Both transgenic and wild-type cell lines were initially plated in “growth permissive” conditions (33° C.) and grown in 10 ml of “standard media,” consisting of 90% RPMI 1640 (Invitrogen, Grand Island, N.Y.), 10% fetal bovine serum (Hyclone, Logan, Utah), 1% L-glutamine (Irvine Scientific, Santa Ana, Calif.), 1% pen-strep (Biosource, Rockville, Md.), 1% sodium bicarbonate (Sigma-Aldrich, St Louis, Mo.) and 1% HEPES buffer (Sigma-Aldrich, Santa, Ana, Calif.), and 1% sodium pyruvate (Irvine Scientific, Santa Ana, Calif.). For growth promotion, 5 μl of mouse gamma interferon were added to 10 ml of media. […]\n(§3) Each study group was assessed for proliferation (see below) at three different time points as follows: (i) day “1” of growth restriction which was defined as 24 h after plating cells into growth restrictive conditions; (ii) day 7 of growth restrictive conditions. […]\n(§4) Cell proliferation was assessed by the MTT (Promega, Madison, Wis.) assay on days 1, 7, and 14 of growth restriction. […]"}, "[4]": {"tested_on": "conditionally immortalized wild-type podocytes", "assay": "MTT proliferation assay, wild-type (WT) podocytes under growth restriction", "format": "cell-based, mouse", "description": "as §2, §3, §4"}, "rat podocytes": {"tested_on": "rat podocytes", "assay": "Immunofluorescent staining of cultured rat podocytes (nephrin, podocin)"}, "transgenic podocytes": {"tested_on": "transgenic podocytes", "assay": "Immunostaining of HIV transgenic podocytes for podocyte and cell cycle proteins"}, "[5]": {"settings": "nephritic mice, days 5 and 14 after disease induction, vs control nephritic mice given vehicle"}, "[6]": {"settings": "nephritic mice, vs control nephritic animals given vehicle"}, "[7]": {"settings": "transgenic podocytes, day 7 of growth restriction"}}, "note": "Entries after “also recorded” stand apart in the source; their conditions may differ.", "data": [{"smiles": "CC1=C(/C=C/C(C)=C/C=C/C(C)=C/C(=O)O)C(C)(C)CCC1", "note": "[ATRA, all-trans retinoic acid]", "values": [{"measurement": "MTT absorbance", "setting": "[1]", "result": "significantly reduced MTT absorbance"}, {"measurement": "process formation (scanning electron microscopy)", "setting": "cultured rat podocytes; 1 μM ATRA", "result": "resulted in the presence of processes"}, {"measurement": "process formation (scanning electron microscopy)", "setting": "cultured rat podocytes; Ten 1 μM ATRA", "result": "marked increase in the number and length of processes"}, {"measurement": "number of cells that stained positive for PCNA vs normal", "setting": "[2]; experimental (ATRA treated) mice, day 5, P<0.05 vs normal, FIG. 4 legend", "result": "increased"}, {"measurement": "PCNA staining (podocyte proliferation) vs control", "setting": "[2]; nephritic mice, day 7", "result": "did not have a statistically significant effect"}, {"measurement": "WT-1 staining (podocyte number) vs control", "setting": "[2]; nephritic mice, day 7", "result": "prevented the decrease in WT-1 staining; also recorded: prevented the decrease in podocyte number"}, {"measurement": "PCNA staining (podocyte proliferation) vs control", "setting": "[2]; nephritic mice, day 14", "result": "significantly reduced podocyte proliferation; also recorded: significantly reduced PCNA immunostaining"}, {"measurement": "WT-1 staining (podocyte number) vs control", "setting": "[2]; nephritic mice, day 14", "result": "prevented the decrease in WT-1 staining; also recorded: prevented the decrease in podocyte number"}, {"measurement": "nephrin immunostaining in kidney", "setting": "[2]; [5]", "result": "prevented the decrease in immunostaining"}, {"measurement": "podocin immunostaining in kidney", "setting": "[2]; [5]", "result": "prevented the decrease in immunostaining"}, {"measurement": "synaptopodin immunostaining in kidney", "setting": "[2]; [5]", "result": "prevented the decrease in immunostaining"}, {"measurement": "CD2AP immunostaining in kidney", "setting": "[2]; [6]", "result": "not different from control nephritic animals"}, {"measurement": "p35 immunostaining in kidney", "setting": "[2]; [6]", "result": "not different from control nephritic animals"}, {"measurement": "reduction of proliferation of transgenic podocytes (MTT) compared to Tg podocytes without ATRA", "setting": "[3]; day 7 of growth restriction, p<.05", "result": 50, "unit": "%"}, {"measurement": "reduction of proliferation of transgenic podocytes (MTT) compared to Tg podocytes without ATRA", "setting": "[3]; day 14 of growth restriction, p<0.005", "result": 25, "unit": "%"}, {"measurement": "proliferation of WT podocytes (MTT), exposed to ATRA vs without ATRA", "setting": "[4]", "result": "no measurable difference"}, {"measurement": "podocin immunostaining compared to control", "setting": "rat podocytes; cultured rat podocytes, OptM ATRA", "result": "increased immunostaining"}, {"measurement": "nephrin immunostaining compared to control cells exposed to vehicle", "setting": "rat podocytes; undifferentiated and proliferating rat podocytes, 10 μM ATRA", "result": "nephrin immunostaining increased"}, {"measurement": "cyclin A staining vs standard media", "setting": "transgenic podocytes; ATRA exposed group", "result": "decreased intensity of staining"}, {"measurement": "cell number vs standard media", "setting": "transgenic podocytes; ATRA group, cyclin A staining", "result": "grossly decreased"}, {"measurement": "WT-1 staining vs standard media", "setting": "transgenic podocytes; [7]", "result": "increased staining intensity"}, {"measurement": "cd2ap staining vs transgenic podocytes in standard media", "setting": "transgenic podocytes; [7]", "result": "increased intensity of staining"}, {"measurement": "cell size and cell number vs standard media", "setting": "transgenic podocytes; [7]", "result": "appeared larger and decreased in number; also recorded: increased cell size and decreased cell number"}, {"measurement": "CD2AP staining vs standard media group", "setting": "transgenic podocytes; transgenic podocytes, day 14 of growth restriction", "result": "increased staining intensity"}, {"measurement": "decrease in cell number", "setting": "transgenic podocytes; transgenic podocytes, day 14 time point", "result": "not as prominent"}]}]}
